Data as given in the supplement of paper PMC10307832.

How the values were obtained:
Assay in all cases: relative viability (nuclei count vs DMSO), 5 days (fraction); higher = more cells survive
SW 1573 = test system: SW 1573
Summary of the method: (§1)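 Relative viability is defined as nuclei in treated wells over nuclei in vehicle wells. Duplicate plates were run and medians reported. Lung cancer cell lines in 1536-well plates were dosed by pin tool one day after seeding, with one drug or with a fixed anchor-drug dose plus five library-drug doses (not always all listed) in √10 steps, and nuclei were counted after 5 days.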

NCI-H2342 = test system: NCI-H2342
Summary of the method: as §1

NCI-H647 = test system: NCI-H647
Summary of the method: as §1

NCI-H522 = test system: NCI-H522
Summary of the method: as §1

HCC-78 = test system: HCC-78
Summary of the method: as §1

HOP-62 = test system: HOP-62
Summary of the method: as §1

NCI-H358 = test system: NCI-H358
Summary of the method: as §1

NCI-H2347 = test system: NCI-H2347
Summary of the method: as §1

NCI-H2126 = test system: NCI-H2126
Summary of the method: as §1

HCC-15 = test system: HCC-15
Summary of the method: as §1

PC-3 [JPC-3] = test system: PC-3 [JPC-3]
Summary of the method: as §1

NCI-H1915 = test system: NCI-H1915
Summary of the method: as §1

LC-2-ad = test system: LC-2-ad
Summary of the method: as §1

RERF-LC-KJ = test system: RERF-LC-KJ
Summary of the method: as §1

A-427 = test system: A-427
Summary of the method: as §1

LXF-289 = test system: LXF-289
Summary of the method: as §1

NCI-H1755 = test system: NCI-H1755
Summary of the method: as §1

NCI-H1734 = test system: NCI-H1734
Summary of the method: as §1

NCI-H1975 = test system: NCI-H1975
Summary of the method: as §1

NCI-H2228 = test system: NCI-H2228
Summary of the method: as §1

SK-LU-1 = test system: SK-LU-1
Summary of the method: as §1

## Nc1ccn([C@@H]2O[C@H](CO)[C@@H](O)[C@@H]2O)c(=O)n1 [Cytarabine] + Cc1cc(Nc2cc(N3CCN(C)CC3)nc(Sc3ccc(NC(=O)C4CC4)cc3)n2)n[nH]1 [Tozasertib] (partner 0.1 µM)
SW 1573; first compound 0.005 µM
  relative viability: 0.184
SW 1573; first compound 0.01581 µM
  relative viability: 0.161
SW 1573; first compound 0.05 µM
  relative viability: 0.128
SW 1573; first compound 0.1581 µM
  relative viability: 0.169
SW 1573; first compound 0.5 µM
  relative viability: 0.101
NCI-H2342; first compound 0.005 µM
  relative viability: 0.507
NCI-H2342; first compound 0.01581 µM
  relative viability: 0.616
NCI-H2342; first compound 0.05 µM
  relative viability: 0.496
NCI-H2342; first compound 0.1581 µM
  relative viability: 0.506
NCI-H2342; first compound 0.5 µM
  relative viability: 0.459
NCI-H647; first compound 0.005 µM
  relative viability: 0.205
NCI-H647; first compound 0.01581 µM
  relative viability: 0.22
NCI-H647; first compound 0.05 µM
  relative viability: 0.0474
NCI-H647; first compound 0.1581 µM
  relative viability: 0.073
NCI-H647; first compound 0.5 µM
  relative viability: 0.0484
NCI-H522; first compound 0.005 µM
  relative viability: 0.556
NCI-H522; first compound 0.01581 µM
  relative viability: 0.5
NCI-H522; first compound 0.05 µM
  relative viability: 0.476
NCI-H522; first compound 0.1581 µM
  relative viability: 0.482
NCI-H522; first compound 0.5 µM
  relative viability: 0.572
HCC-78; first compound 0.005 µM
  relative viability: 0.518
HCC-78; first compound 0.01581 µM
  relative viability: 0.489
HCC-78; first compound 0.05 µM
  relative viability: 0.389
HCC-78; first compound 0.1581 µM
  relative viability: 0.333
HCC-78; first compound 0.5 µM
  relative viability: 0.253
HOP-62; first compound 0.005 µM
  relative viability: 0.251
HOP-62; first compound 0.01581 µM
  relative viability: 0.259
HOP-62; first compound 0.05 µM
  relative viability: 0.282
HOP-62; first compound 0.5 µM
  relative viability: 0.0966
NCI-H358; first compound 0.005 µM
  relative viability: 0.102
NCI-H358; first compound 0.01581 µM
  relative viability: 0.0922
NCI-H358; first compound 0.05 µM
  relative viability: 0.1
NCI-H358; first compound 0.1581 µM
  relative viability: 0.097
NCI-H358; first compound 0.5 µM
  relative viability: 0.0847
NCI-H2347; first compound 0.005 µM
  relative viability: 0.553
NCI-H2347; first compound 0.01581 µM
  relative viability: 0.427
NCI-H2347; first compound 0.05 µM
  relative viability: 0.444
NCI-H2347; first compound 0.1581 µM
  relative viability: 0.52
NCI-H2347; first compound 0.5 µM
  relative viability: 0.402
NCI-H2126; first compound 0.005 µM
  relative viability: 0.655
NCI-H2126; first compound 0.01581 µM
  relative viability: 0.774
NCI-H2126; first compound 0.05 µM
  relative viability: 0.607
NCI-H2126; first compound 0.1581 µM
  relative viability: 0.53
NCI-H2126; first compound 0.5 µM
  relative viability: 0.348
HCC-15; first compound 0.005 µM
  relative viability: 0.413
HCC-15; first compound 0.01581 µM
  relative viability: 0.57
HCC-15; first compound 0.05 µM
  relative viability: 0.577
HCC-15; first compound 0.1581 µM
  relative viability: 0.461
HCC-15; first compound 0.5 µM
  relative viability: 0.354
PC-3 [JPC-3]; first compound 0.005 µM
  relative viability: 0.726
PC-3 [JPC-3]; first compound 0.01581 µM
  relative viability: 0.826
PC-3 [JPC-3]; first compound 0.05 µM
  relative viability: 0.966
PC-3 [JPC-3]; first compound 0.1581 µM
  relative viability: 0.704
PC-3 [JPC-3]; first compound 0.5 µM
  relative viability: 0.665
NCI-H1915; first compound 0.005 µM
  relative viability: 0.351
NCI-H1915; first compound 0.01581 µM
  relative viability: 0.472
NCI-H1915; first compound 0.05 µM
  relative viability: 0.401
NCI-H1915; first compound 0.1581 µM
  relative viability: 0.319
NCI-H1915; first compound 0.5 µM
  relative viability: 0.32
LC-2-ad; first compound 0.005 µM
  relative viability: 0.415
LC-2-ad; first compound 0.01581 µM
  relative viability: 0.452
LC-2-ad; first compound 0.05 µM
  relative viability: 0.418
LC-2-ad; first compound 0.1581 µM
  relative viability: 0.39
LC-2-ad; first compound 0.5 µM
  relative viability: 0.301
RERF-LC-KJ; first compound 0.005 µM
  relative viability: 0.385
RERF-LC-KJ; first compound 0.01581 µM
  relative viability: 0.512
RERF-LC-KJ; first compound 0.05 µM
  relative viability: 0.353
RERF-LC-KJ; first compound 0.1581 µM
  relative viability: 0.393
RERF-LC-KJ; first compound 0.5 µM
  relative viability: 0.266
A-427; first compound 0.005 µM
  relative viability: 0.232
A-427; first compound 0.01581 µM
  relative viability: 0.212
A-427; first compound 0.05 µM
  relative viability: 0.163
A-427; first compound 0.1581 µM
  relative viability: 0.161
A-427; first compound 0.5 µM
  relative viability: 0.149
LXF-289; first compound 0.005 µM
  relative viability: 0.244
LXF-289; first compound 0.01581 µM
  relative viability: 0.182
LXF-289; first compound 0.05 µM
  relative viability: 0.13
LXF-289; first compound 0.1581 µM
  relative viability: 0.0999
LXF-289; first compound 0.5 µM
  relative viability: 0.0753
NCI-H1755; first compound 0.005 µM
  relative viability: 0.492
NCI-H1755; first compound 0.01581 µM
  relative viability: 0.452
NCI-H1755; first compound 0.05 µM
  relative viability: 0.421
NCI-H1755; first compound 0.1581 µM
  relative viability: 0.273
NCI-H1755; first compound 0.5 µM
  relative viability: 0.344
NCI-H1734; first compound 0.005 µM
  relative viability: 0.245
NCI-H1734; first compound 0.01581 µM
  relative viability: 0.232
NCI-H1734; first compound 0.05 µM
  relative viability: 0.178
NCI-H1734; first compound 0.1581 µM
  relative viability: 0.117
NCI-H1734; first compound 0.5 µM
  relative viability: 0.112
NCI-H1975; first compound 0.005 µM
  relative viability: 0.681
NCI-H1975; first compound 0.01581 µM
  relative viability: 0.799
NCI-H1975; first compound 0.05 µM
  relative viability: 0.728
NCI-H1975; first compound 0.1581 µM
  relative viability: 0.317
NCI-H1975; first compound 0.5 µM
  relative viability: 0.206
NCI-H2228; first compound 0.005 µM
  relative viability: 0.144
NCI-H2228; first compound 0.01581 µM
  relative viability: 0.204
NCI-H2228; first compound 0.05 µM
  relative viability: 0.207
NCI-H2228; first compound 0.1581 µM
  relative viability: 0.0929
NCI-H2228; first compound 0.5 µM
  relative viability: 0.105
SK-LU-1; first compound 0.005 µM
  relative viability: 0.301
SK-LU-1; first compound 0.01581 µM
  relative viability: 0.325
SK-LU-1; first compound 0.05 µM
  relative viability: 0.279
SK-LU-1; first compound 0.1581 µM
  relative viability: 0.185
SK-LU-1; first compound 0.5 µM
  relative viability: 0.189
